{
  "source": "paper PMC10376059",
  "about": "“New NADPH Oxidase 2 Inhibitors Display Potent Activity against Oxidative Stress by Targeting p22^phox-p47^phox Interactions” (Antioxidants, 2023)",
  "key": {"NADPH oxidase (NOX2) [1]": {"molecular_target": "T1, NADPH oxidase (NOX2) (Homo sapiens, UniProt P14598)", "T1 construct": "HL-60 cells expressed the components of NOX2, including gp91, p22^phox, p47^phox, and p67^phox; endogenous in cells; whole cells in A1, membrane preparations in A3 and A4", "T1 sequence (P14598 1-390)": "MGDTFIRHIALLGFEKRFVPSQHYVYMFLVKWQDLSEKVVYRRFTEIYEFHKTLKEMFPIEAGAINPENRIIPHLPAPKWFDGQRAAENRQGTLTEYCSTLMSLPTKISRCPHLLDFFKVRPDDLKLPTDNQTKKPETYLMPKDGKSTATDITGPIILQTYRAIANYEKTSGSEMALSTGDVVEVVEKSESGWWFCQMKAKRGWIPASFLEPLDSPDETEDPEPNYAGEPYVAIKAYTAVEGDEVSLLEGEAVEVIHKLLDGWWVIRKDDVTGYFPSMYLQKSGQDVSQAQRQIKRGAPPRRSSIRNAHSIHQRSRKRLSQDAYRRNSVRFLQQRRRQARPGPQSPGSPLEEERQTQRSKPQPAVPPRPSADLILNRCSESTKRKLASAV", "assay": "NOX2 activity by cytochrome C reduction in HL-60 membrane preparations", "type": "biochemical", "settings": "HL-60 membrane homogenates, increasing concentrations", "method": "Neutrophil-differentiated HL-60 cells (2 × 10^6 cells/mL) […], then PMA 0.8 μM was added and incubated for 1 h to induce the activation of the enzyme NADPH oxidase. As a positive inhibition control, VAS2870 (20 μM) was used. Another two controls were performed: one with cells activated by PMA in the presence of DMSO, and the other (NA, non-activated) with cells in the absence of PMA and the acrylonitrile compounds. In 15 mL conical tubes, 5 mL of cell suspension from each treatment and control condition was transferred at 2 × 10^6 cells/mL and centrifuged at 1000 rpm at 4 °C for 10 min. […]\nThe membrane preparations from the neutrophil-differentiated HL-60 cells, treated with the different indole heteroaryl-acrylonitrile derivatives, were re-suspended in PBS with 10 μL/mL of the protease inhibitor cocktail (in mM): 104 (4-(2-aminoethyl)benzenesulfonylfluoride hydrochloride); 1.4 N-(trans-epoxysuccinyl)-L-leucine-4-guanidinobutyric; 2 leupeptin hemisulfate; 4 bestatin hydrochloride; 1.5 pepstatin A; and 80 μM aprotinin. Total proteins were quantified by the bicinchoninic acid (BCA) method using the commercial kit BCA™ (Thermo Scientific Pierce™, Rockford, IL, USA), using BSA as a standard. […] The reaction was monitored at 550 nm for 30 min at 25 °C using PBS as a blank."}, "NADPH oxidase (NOX2) [2]": {"molecular_target": "T1, NADPH oxidase (NOX2)", "assay": "NADPH oxidase activity by lucigenin chemiluminescence in HL-60 membrane preparations", "type": "biochemical", "settings": "PMA 0.8 µM, compound 50 µM, vs control", "method": "Neutrophil-differentiated HL-60 cells (2 × 10^6 cells/mL) were incubated at 37 °C in a humid atmosphere with 5% CO2 and 50 μM of the different acrylonitrile compounds, then PMA 0.8 μM was added and incubated for 1 h to induce the activation of the enzyme NADPH oxidase. As a positive inhibition control, VAS2870 (20 μM) was used. Another two controls were performed: one with cells activated by PMA in the presence of DMSO, and the other (NA, non-activated) with cells in the absence of PMA and the acrylonitrile compounds. In 15 mL conical tubes, 5 mL of cell suspension from each treatment and control condition was transferred at 2 × 10^6 cells/mL and centrifuged at 1000 rpm at 4 °C for 10 min. The supernatant was then discarded, and each pellet was re-suspended in 2 mL of a 4% PBS solution with 2 mM EGTA and 0.25 mM PMSF frozen at −80 °C for 10 min. Then each pellet was thawed on ice. […]\nThe chemiluminescence analysis of lucigenin derivatives was used to determine the activity of NADPH oxidase in a suspension of membrane preparations of HL-60 cells. […] Chemiluminescence was measured for 1 h at 2 min intervals with a Synnergy H1 hybrid luminometer multi-mode microplate reader and GEN5 program (Biotek Instruments, Inc., Winooski, VT, USA). […] The activity was expressed as relative units of luminescence per second, relative to the control."}},
  "data": [
    {"smiles": "N#C/C(=C\\c1cc(-c2ccccc2)on1)C(=O)c1c[nH]c2ccccc12", "note": "[Compound C6]", "values": [
      {"measurement": "superoxide production, cytochrome C reduction (in words)", "setting": "NADPH oxidase (NOX2) [1]", "result": "reduced superoxide production in a concentration-dependent manner"},
      {"measurement": "ROS production, lucigenin chemiluminescence (in words)", "setting": "NADPH oxidase (NOX2) [2]", "result": "significantly reduce ROS production"}
    ]},
    {"smiles": "N#C/C(=C\\c1ccncc1)C(=O)c1c[nH]c2ccccc12", "note": "[Compound C14]", "values": [
      {"measurement": "superoxide production, cytochrome C reduction (in words)", "setting": "NADPH oxidase (NOX2) [1]", "result": "reduced superoxide production in a concentration-dependent manner"},
      {"measurement": "ROS production, lucigenin chemiluminescence (in words)", "setting": "NADPH oxidase (NOX2) [2]", "result": "significantly reduce ROS production"}
    ]}
  ]
}
